Like-named read-outs stand apart in the source and are kept apart here. Blank lines part the entries; values can stand above or below the compound they belong to.
Assays:
human apo-transferrin [1] = target: T1, human apo-transferrin (Homo sapiens, UniProt P02787); assay: ^111In-chelate stability: binding competition with human apo-transferrin at ambient temperature, PD-10 columns; assay type: in vitro ADME; parameters: Human serum apo-transferrin was purchased from Sigma-Aldrich; purchased Sigma-Aldrich; host or cells: human serum
Method: Human apo-transferrin (Aldrich) was suspended in 10 mM NaHCO3 buffer at pH 6.9. Labeling solutions were prepared with chelators and ^111In in 10 mM NaHCO3 buffer at pH 5.5, and allowed to sit for 20-30 minutes. Quantitative formation of ^111In-chelate complexes was confirmed by HPLC (same methods as in Example 2). ^111In(DOTA) was formed using a microwave reactor (Biotage) at 80° C. for 10 minutes to ensure quantitative labeling. Competition experiments for all 8 chelators studied (Table 3) were performed with preformed ^111In-chelate complexes at a concentration of 36.5 mM, and with human apo-transferrin at a concentration of ˜10 mM. Samples were left to sit in sterile scintillation vials for 1 hour and 24 hours at ambient temperature. Chelate stability was determined using size-exclusion ‘desalting’ columns (GE Healthcare PD-10 pre-packed columns, Sephadex G-25 M). All compounds smaller than ˜5000 Daltons were retained by the PD-10 columns, and all transferrin was eluted. PD-10 columns were conditioned by discarding the contained bactericidal solution and eluting 20 mL of phosphate buffered saline (PBS, purchased from BioWhittaker). For analysis, the competition experiment solutions were diluted to 2.5 mL with PBS, measured with a Capintec scintillation counter, loaded onto PD-10 columns, and allowed to elute into a waste container fully. An additional 3.5 mL of PBS was then loaded onto the columns and collected into a sterile scintillation vial. PD-10 columns were discarded after a single use. The vial containing the eluent was then measured with a Capintec scintillation counter to determine the amount of ^111In bound to transferrin. The difference in radioactivity between the competition experiment solutions and the eluent from the PD-10 columns was used to determine the percent ^111In bound to transferrin, and therefore the percent stability of the complexes.

human apo-transferrin [2] = target: T1, human apo-transferrin; assay: ^67Ga complex stability: 2-h competition with excess human apo-transferrin, HPLC; conditions: for Stability in competition with excess human apo-transferrin, 10 min / Stability in competition with excess human apo-transferrin, 1 h / Stability in competition with excess human apo-transferrin, 2 h: ^67Ga complex, 37° C
Method: (§1) FIG. 13 illustrates stacked labelling traces of ^67Ga(dedpa)^+ of 2 h stability experiment against apo-transferrin (gradient: A: NaOAc buffer, pH 4.5, B: MeOH. 0-100% B linear gradient 20 min).

log P = assay type: physicochemical
[3] = Solution thermodynamics: formation constants (log KML) and pM of Ga(III) complexes, potentiometric titration; assay type: physicochemical; conditions: Calculated for 10 μM total ligand and 1 μM total metal at pH 7.4 and 25° C
Method: A more relevant indicator of the extent to which a metal complex is formed in solution is given by pM (−log free M) which considers the influence of ligand basicity and chelate hydrolysis.
Carbonate-free solutions of the titrant, NaOH, were prepared by dilution of 50% solution (Acros Organics) with freshly boiled MQ water under a stream of purified nitrogen gas. The solution was standardized with potassium acid phthalate and the extent of carbonate accumulation was periodically checked by titration with a standard hydrochloric acid solution and determination of the corresponding Gran titration plot.^47 Gallium ion solutions were prepared by dilution of the appropriate atomic absorption (AA) standard. The exact amount of acid present in the gallium standard was determined by titration of an equimolar solution of Ga and Na2H2EDTA. The amount of acid present was determined by Gran's method.^47
Data were collected in triplicate using PC Control (Version 6.0.91, Metrohm). The titration apparatus consisted of a 10 mL water jacketed glass vessel maintained at 25.0±0.1° C. (Julabo waterbath). Prior to and during the course of the titration, a blanket of nitrogen, passed through 10% NaOH to exclude any CO2, was maintained over the sample solution. The ionic strength was maintained at 0.16 M using NaCl. Prior to each potentiometric equilibrium study, the electrode was calibrated using standard HCl solutions. Calibration data were analysed by standard computer treatment provided within the program MacCalib to obtain the calibration parameters E0 and pKw.
As the degree of formation of Ga(III) complexes at low pH (<2) was too high for the determination of stability constants by use of direct potentiometry, the ligand-ligand competition method using Na2H2EDTA was also performed.

human apo-transferrin [4] = target: T1, human apo-transferrin; conditions: 40 µM
Method: as §1

[5] = Ga(III) complex, cited from earlier work; for log KML: literature value

T1 sequence (P02787 20-698): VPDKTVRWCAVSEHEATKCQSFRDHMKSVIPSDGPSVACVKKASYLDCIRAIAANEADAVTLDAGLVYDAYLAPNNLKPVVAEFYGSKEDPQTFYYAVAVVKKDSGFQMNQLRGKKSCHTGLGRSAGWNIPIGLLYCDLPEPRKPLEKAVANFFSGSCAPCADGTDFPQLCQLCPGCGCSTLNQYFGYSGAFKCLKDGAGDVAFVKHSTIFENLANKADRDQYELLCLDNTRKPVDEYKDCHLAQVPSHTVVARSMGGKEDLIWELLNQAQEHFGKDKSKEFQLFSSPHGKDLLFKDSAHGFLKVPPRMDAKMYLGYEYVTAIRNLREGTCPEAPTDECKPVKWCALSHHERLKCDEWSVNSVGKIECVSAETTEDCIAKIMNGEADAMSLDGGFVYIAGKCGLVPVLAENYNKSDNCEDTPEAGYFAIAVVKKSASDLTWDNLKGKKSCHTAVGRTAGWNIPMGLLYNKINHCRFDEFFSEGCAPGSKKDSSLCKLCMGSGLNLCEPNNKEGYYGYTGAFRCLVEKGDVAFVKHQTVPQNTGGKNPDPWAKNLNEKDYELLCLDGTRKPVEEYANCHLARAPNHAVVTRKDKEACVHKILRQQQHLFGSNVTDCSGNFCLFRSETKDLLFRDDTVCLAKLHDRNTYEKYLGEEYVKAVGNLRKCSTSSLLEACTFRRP

Compound: O=C(O)c1cccc(CNCCNCc2cccc(C(=O)O)n2)n1 [Compound H2dedpa]
pM [3]: 27.4
Extraction of gallium from transferrin (in words) (human apo-transferrin [2]; challenge experiment): capable of extracting gallium from transferrin

Compound: O=C(O)c1cccc(CN(CCN(Cc2ccc([N+](=O)[O-])cc2)Cc2cccc(C(=O)O)n2)Cc2ccc([N+](=O)[O-])cc2)n1 [Compound 66]
Stability in competition with excess human apo-transferrin, 10 min (human apo-transferrin [4]; 10 min): 88%
Stability in competition with excess human apo-transferrin, 1 h (human apo-transferrin [4]; 1 h): 69%
Stability in competition with excess human apo-transferrin, 2 h (human apo-transferrin [4]; 2 h): 51%

Compound: O=C(O)CN1CCN(CC(=O)O)CCN(CC(=O)O)CCN(CC(=O)O)CC1 [DOTA, 1,4,7,10-tetraazacyclododecane-1,4,7,10-tetraacetic acid, reference compound]
pM [3]: 18.5
log KML [5]: 21.33

Compound: COc1cc(CN(CCN(Cc2cc(OC)cc(OC)c2)Cc2cccc(C(=O)[O-])n2)Cc2cccc(C(=O)[O-])n2)cc(OC)c1.O=[N+]([O-])[O-].[Ga+3] [Ga(88)NO3]
Stability in competition with excess human apo-transferrin, 10 min (human apo-transferrin [2]): 76%
Stability in competition with excess human apo-transferrin, 1 h (human apo-transferrin [2]): 59%
Stability in competition with excess human apo-transferrin, 2 h (human apo-transferrin [2]): 52%
log P (log P): −0.32

Compound: Transferrin: iron transport protein found in high concentrations in the blood that has an affinity for Ga
pM [3]: 21.3
log KML (conditional constant) ([5]; conditional constant from reference): 20.3

Compound: O=C(O)c1cccc(CNCCNCc2cccc(C(=O)O)n2)n1 [^111In(1), metal not drawn]
% ^111In-chelate stability at 1 hour (human apo-transferrin [1]): 98%
% ^111In-chelate stability, 24 hour stability (human apo-transferrin [1]): 43%

Compound: COc1cc(OC)c(CN(CCN(Cc2cccc(C(=O)[O-])n2)Cc2c(OC)cc(OC)cc2OC)Cc2cccc(C(=O)[O-])n2)c(OC)c1.O=[N+]([O-])[O-].[Ga+3] [Ga(91a)NO3]
Stability in competition with excess human apo-transferrin, 10 min (human apo-transferrin [2]): 86%
Stability in competition with excess human apo-transferrin, 1 h (human apo-transferrin [2]): 85%
Stability in competition with excess human apo-transferrin, 2 h (human apo-transferrin [2]): 82%
log P (log P): −0.03

Compound: O=C(O)CN(CCN(CC(=O)O)CC(=O)O)CC(=O)O [EDTA, reference compound]
pM [3]: 18.3
log KML [5]: 21.7

More lines, main results first:

% ^111In-chelate stability at 1 hour (human apo-transferrin [1]): 91%
% ^111In-chelate stability, 24 hour stability (human apo-transferrin [1]): 85%
Compound: O=C(O)c1cccc(CNCCCNCc2cccc(C(=O)O)n2)n1 [^111In(3), metal not drawn]

Stability in competition with excess human apo-transferrin, 10 min (human apo-transferrin [2]): 94%
Stability in competition with excess human apo-transferrin, 1 h (human apo-transferrin [2]): 93%
Stability in competition with excess human apo-transferrin, 2 h (human apo-transferrin [2]): 93%
log P (log P): 1.16
Compound: CCOc1cc(OCC)c(CN(CCN(Cc2cc(OC)cc(C(=O)[O-])n2)Cc2c(OCC)cc(OCC)cc2OCC)Cc2cc(OC)cc(C(=O)[O-])n2)c(OCC)c1.O=[N+]([O-])[O-].[Ga+3] [Ga(99b)NO3]

Stability in competition with excess human apo-transferrin, 10 min (human apo-transferrin [2]): 95%
Stability in competition with excess human apo-transferrin, 1 h (human apo-transferrin [2]): 92%
Stability in competition with excess human apo-transferrin, 2 h (human apo-transferrin [2]): 91%
Compound: CCOc1cc(OCC)c(CN(CCN(Cc2cccc(C(=O)[O-])n2)Cc2c(OCC)cc(OCC)cc2OCC)Cc2cccc(C(=O)[O-])n2)c(OCC)c1.O=[N+]([O-])[O-].[Ga+3] [Ga(99a)NO3]

Stability in competition with excess human apo-transferrin, 10 min (human apo-transferrin [2]): 97%
Stability in competition with excess human apo-transferrin, 1 h (human apo-transferrin [2]): 96%
Stability in competition with excess human apo-transferrin, 2 h (human apo-transferrin [2]): 96%
log P (log P): 0.66
Compound: COc1cc(CN(CCN(Cc2cc(OC)cc(C(=O)[O-])n2)Cc2c(OC)cc(OC)cc2OC)Cc2c(OC)cc(OC)cc2OC)nc(C(=O)[O-])c1.O=[N+]([O-])[O-].[Ga+3] [Ga(91b)NO3]

% ^111In-chelate stability, 24 hour stability (human apo-transferrin [1]): 88%
Compound: O=C(O)c1cccc(CNCCN(CCNCc2cccc(C(=O)O)n2)Cc2cccc(C(=O)O)n2)n1 [^111In(5), metal not drawn]

pM [3]: 27.9
Compound: O=C(O)CN1CCN(CC(=O)O)CCN(CC(=O)O)CC1 [NOTA, 1,4,7-triazacyclononane-1,4,7-triacetic acid, reference compound]
log KML [5]: 30.98

% ^111In-chelate stability at 1 hour (human apo-transferrin [1]): 89%
% ^111In-chelate stability, 24 hour stability (human apo-transferrin [1]): 91%
Compound: O=C(O)CN(CCN(CC(=O)O)Cc1cccc(C(=O)O)n1)CCN(CC(=O)O)Cc1cccc(C(=O)O)n1 [^111In(6), metal not drawn]

% ^111In-chelate stability, 24 hour stability (human apo-transferrin [1]): 81%
Compound: O=C([O-])CN1CCN(CC(=O)[O-])CCN(CC(=O)[O-])CCN(CC(=O)[O-])CC1.[111In+3] [^111In(DOTA), reference compound]

% ^111In-chelate stability at 1 hour (human apo-transferrin [1]): 90%
% ^111In-chelate stability, 24 hour stability (human apo-transferrin [1]): 91%
Compound: O=C(O)CN(CCN(CC(=O)O)Cc1cccc(C(=O)O)n1)Cc1cccc(C(=O)O)n1 [^111In(2), metal not drawn]

% ^111In-chelate stability at 1 hour (human apo-transferrin [1]): 93%
% ^111In-chelate stability, 24 hour stability (human apo-transferrin [1]): 91%
Compound: O=C(O)CN(CCCN(CC(=O)O)Cc1cccc(C(=O)O)n1)Cc1cccc(C(=O)O)n1 [^111In(4), metal not drawn]

% ^111In-chelate stability at 1 hour (human apo-transferrin [1]): 86%
% ^111In-chelate stability, 24 hour stability (human apo-transferrin [1]): 88%
Compound: O=C([O-])CN(CCN(CC(=O)[O-])CC(=O)[O-])CCN(CC(=O)[O-])CC(=O)[O-].[111In+3] [^111In(DTPA), reference compound]
